Measurements from the NIST ThermoML archive (doi:10.1016/j.jct.2005.04.005).

Assay: mn = molality of the nth substance listed, in mol/kg
Settings: 101 kPa, Liquid

C1COCCOCCOCCOCCOCCO1 [1,4,7,10,13,16-hexaoxacyclooctadecane] + O
Settings	mass density, 293.15 K [kg/m3]	mass density, 295.15 K [kg/m3]	mass density, 297.15 K [kg/m3]	mass density, 298.15 K [kg/m3]	mass density, 299.15 K [kg/m3]	mass density, 301.15 K [kg/m3]	mass density, 303.15 K [kg/m3]	mass density, 308.15 K [kg/m3]	mass density, 313.15 K [kg/m3]	speed of sound, 298.15 K [m/s]
m1 = 0.0001	–	–	–	997.047	–	–	–	–	–	–
m1 = 0.09578	1002.26	1001.8	1001.29	1000.98	1000.71	1000.12	999.519	997.836	995.959	–
m1 = 0.0958	–	–	–	1000.98	–	–	–	–	–	1512.5
m1 = 0.1953	1006.34	1005.85	1005.3	1004.95	1004.66	1004.02	1003.4	1001.65	999.701	1527.2
m1 = 0.4197	1015.08	1014.51	1013.88	1013.44	1013.12	1012.39	1011.69	1009.76	1007.65	1557.3
m1 = 0.5091	1018.38	1017.79	1017.12	1016.66	1016.33	1015.56	1014.82	1012.82	1010.65	1568.3
m1 = 0.6046	1021.8	1021.17	1020.48	1019.99	1019.64	1018.84	1018.06	1015.99	1013.74	1579.6
m1 = 0.7192	1025.77	1025.1	1024.37	1023.86	1023.49	1022.65	1021.82	1019.66	1017.33	1592.7
m1 = 0.8244	1029.28	1028.57	1027.8	1027.28	1026.89	1026.01	1025.14	1022.9	1020.49	1604.2
m1 = 0.9881	1034.49	1033.73	1032.91	1032.37	1031.95	1031.02	1030.1	1027.73	1025.21	1621.4
m1 = 1.13	1038.8	1037.98	1037.12	1036.57	1036.13	1035.15	1034.18	1031.7	1029.09	1635.5
m1 = 1.296	1043.56	1042.68	1041.78	1041.22	1040.75	1039.72	1038.71	1036.12	1033.4	1651.2
m1 = 1.484	1048.63	1047.68	1046.73	1046.16	1045.66	1044.59	1043.54	1040.81	1037.98	1667.6
m1 = 1.643	1052.69	1051.69	1050.69	1050.12	1049.6	1048.48	1047.4	1044.56	1041.64	1680.3
m1 = 2.189	1064.99	1063.83	1062.7	1062.06	1061.5	1060.24	1059.05	1055.88	1052.65	1714.6
m1 = 2.803	1076.32	1075.11	1073.77	1073.02	1072.41	1071.01	1069.62	1066.1	1062.5	1742.3
